Reference: US20120115742A1, “METHODS FOR IDENTIFICATION” (Cambridge Enterprise Limited, priority 2009, published 2012)
Like-named read-outs stand apart in the source and are kept apart here.

Legend:
TNF-alpha = experiment: Sub-lethal endotoxemia model, serum TNF-alpha after LPS; type: in vivo, mouse; conditions: dose-dependent; BN83250 s.c., valerolactam oral gavage
Description: We selected the sub-lethal endotoxemia model in mouse, because this has been well characterised in our laboratory (see for example Fox et al. (2002) J. Med. Chem. 45:360-70; Fox et al. (2005) J. Med. Chem. 48:867-74). The extent of systemic inflammation in response to a single intraperitoneal injection of bacterial lipopolysaccharide (LPS) can be estimated by measuring serum TNF-alpha 2 hours post challenge.
Methods: Mice (CD1 strain; adult males; 6 per group) were treated with BSCI (in an appropriate vehicle) or with vehicle alone by an appropriate route. […] Simultaneously, one set of mice at each BSCI concentration received BIM 23627 at 4 mg/animal (120 mg/kg) by sub-cutaneous injection (a treatment condition known to suppress classical sstr2-mediated signalling, such as GH release, in rats; Tulipano et al. (2002) 143:1218-24). Between 30 mins and 1 hour after dosing (a period when a maximal plasma concentration of BSCI has been achieved), the inflammatory challenge was elicited by intraperitoneal injection of 750 μg of LPS (Sigma; L4130 lot#024K4077; 900,000 EU/mg).
After a further 2 hours, the animals were sacrificed by CO2 asphyxiation, and blood was drawn by cardiac puncture. Serum was prepared by conventional methods, and the level of TNF-alpha in serum was measured using an ELISA (R&D Systems; Murine Quantikine code# MTA00) performed in accordance with the manufacturer's instructions.

fetal rat pituicytes = experiment: Rat pituicyte GH suppression assay; type: cell-based; conditions: Table 3
Text: (§1) Two different assays for “classical” sstr2 functions were adopted: (1) cultured foetal rat pituitary cells secreted growth hormone which is inhibited by sstr2 agonists in a dose-dependent fashion and (2) selected glucose-sensitive sub-clones of the human Panc-1 cell line secrete insulin which is inhibited by sstr2 agonists in a dose-dependent fashion.
Methods: Cultures of fetal rat pituicytes were established exactly as previously described (Murray et al. (2004) J. Clin. Endocrinol. Metab. 89:3027-32) by enzymatic dispersion. After 48 hrs in low glucose DMEM plus 10% FCS, cells in 48 well plates (5×10^4 cells per well) were washed for 4 hrs in serum-free DMEM and then incubated with test agents at various concentrations for a further 24 hrs in serum-free DMEM. At the end of this period, the conditioned medium was harvested, any cell debris removed by centrifugation and assayed for […] using a commercially available ELISA (Linco; cat# EZRMGH-45K) in accordance with the manufacturer's instructions.
(§2) Results were reported as the mean SD, expressed as the fold change from cells in the presence of vehicle only.

Panc-2H4 cells = experiment: Human Panc-2H4 insulin suppression assay; type: cell-based
Text: as §1
Glucose-sensitive sub-clones of the human Panc-1, a cell line derived from a pleiomorphic epithelioid carcinoma of the exocrine pancreas, were obtained essentially as described by Hamil et al. (2008) Biomed. Sci. Instrum. 44:441-6. Briefly, Panc-1 cells were subcultured in 24 well plates, and the medium was supplemented with an additional 5% glucose. […] The resulting sub-lines were then tested for glucose sensitivity by preparing wells of a 96-well plate (5×10^4 cells per well) which were then exposed to cultured medium containing a range of glucose concentrations (low glucose DMEM, DMEM, DMEM+1% glucose, DMEM+2.5% glucose and DMEM+5% glucose). After 24 hrs incubation, the conditioned medium was collected and assayed for insulin secretion by ELISA (Linco; cat# EZHI-14K) in accordance with the manufacturer's instructions. […] Further 96 well plates were prepared using Panc-2H4 (5×10^4 cells per well) in DMEM. After 24 hrs, the medium was switched to DMEM+5% glucose containing various test agents at various concentrations (triplicate wells per condition). After a further 24 hrs, the conditioned medium was harvested and the concentration of insulin was determined by ELISA as described above.
as §2

[1] = test system: rat peripheral blood leukocytes; experiment: Rat chemokine-induced PBMC migration assay; type: cell-based
Description: Similarly, where human Panc-2H4 cells are used to determine the effect of agents on classical sstr2 targets, the result is compared with the effect of the same agents on chemokine-induced migration of human THP-1 cells. […] For this reason, the ratio of “classical” to “BSCI” activity in Table 3 is calculated separately for rat and human.

THP-1 cells = experiment: MCP-1 induced THP-1 cell migration (Transwell/ChemoTx)
Description: Leukocyte migration was measured using the 96-well format micro Transwell® assay system from Neuroprobe (Gaithersburg, Md., USA). In principle, this assay consists of two chambers separated by a porous membrane. The chemoattractant is placed in the lower compartment and the cells are placed in the upper compartment.
First, the cell suspension to be placed in the upper compartment was prepared. The THP-1 cells were pelleted by centrifugation (770×g; 4 mins) and washed with Geys Balanced Salt Solution with 1 mg/ml BSA (GBSS+BSA). This wash was then repeated, and the cells re-pelleted before being resuspended in a small volume of GBSS+BSA for counting, for example using a standard haemocytometer.
This ensured that there were 100,000 THP-1 cells in each 25 μl of the solution to be placed in the upper chamber of the plate.
To the third pot, GBSS+BSA plus vehicle as appropriate was added so that the volumes in three pots are equal, acting as a control.
Next, the chemoattractant solution to be placed in the lower compartment was prepared. […] This solution was divided into three pots, as for the cell suspension. To one pot, the BSCI was added to the same final concentration as was added to the cell suspension, in the second pot the BSCI and the sstr2 antagonist were both added at the same concentration as previously added to the cell suspension, while to the remaining pot GBSS+BSA plus vehicle as appropriate was added so that the volumes in the three pots were equal.
Once the chemoattractant solutions for the lower wells and cell solutions for the upper chambers were prepared, the migration chamber was assembled. 29 μl of the appropriate chemoattractant solution was placed into the lower well of the chamber. Assays were performed with at least triplicate determinations of each condition. Once all the lower chambers were filled, the porous membrane was applied to the chamber in accordance with the manufacturer's instructions. Finally, 25 μl of the appropriate cell solution was applied to each upper chamber. A plastic lid was placed over the entire apparatus to prevent evaporation.
The assembled chamber was incubated at 37° C., 5% CO2, for 2 hours.
At the end of the incubation, the liquid cell suspension was gently removed from the upper chamber, 20 μl of ice-cold 20 mM EDTA in PBS was added to the upper chamber, and the apparatus was incubated at 4° C. for 15 mins. This procedure caused any cells adhering to the underside of the membrane to fall into the lower chamber.
After this incubation the filter was carefully flushed with GBSS+BSA to wash off the EDTA, and then the filter was removed.
The number of cells migrated into the lower chamber under each condition can then be determined by a number of methods, including direct counting, labelling with fluorescent or radioactive markers or through the use of a vital dye. Typically, we utilised the vital dye MTT. 3 μl of stock MTT solution were added to each well, and then the plate was incubated at 37° C. for 1-2 hours during which time dehydrogenase enzymes within the cells converted the soluble MTT to an insoluble blue formazan product that could be quantified spectrophotometrically.
In parallel, an 8-point standard curve was set up. Starting with the number of cells added to each upper chamber (100,000) and going down in 2-fold serial dilutions in GBSS+BSA, the cells were added to a plate in 25 with 3 μl of MTT stock solution added. The standard curve plate was incubated along side the migration plate. At the end of this incubation, the liquid was carefully removed from the lower chambers, taking care not to disturb the precipitated formazan product.
The MCP-1 stimulated migration was determined by subtracting the average number of cells that reached the lower compartment in wells where no MCP-1 was added from the average number of cells that reached the lower compartment where MCP-1 was present at 25 ng/ml.

## (S)-3-(2′,2′-dimethyldodecanoyl)amino-caprolactam [BN83250]
TNF-alpha
  inhibition of LPS-induced systemic inflammation: dramatically inhibited
Fetal rat pituicytes; read-out: Rat pituicyte GH suppression assay ED50
  EC50: 320 nM
Fetal rat pituicytes; suppression compared to vehicle
  Rat pituicyte GH suppression assay Max effect: 63%
Panc-2H4 cells; Table 3, read-out: Human Panc-2H4 insulin suppression assay ED50
  EC50: 1000 nM
Panc-2H4 cells; Table 3, suppression compared to vehicle
  Human Panc-2H4 insulin suppression assay Max effect: 28%
Panc-2H4 cells; Table 5
  Panc-2H4 insulin suppression assay Max Effect: 28%
Panc-2H4 cells; Table 5, read-out: Panc-2H4 insulin suppression assay (“classical” target) ED50
  EC50: 1000 nM
Panc-2H4 cells; highest concentrations tested
  inhibition of insulin secretion by Panc-2H4: None of these agents inhibited insulin secretion
[1]; PBMC migration ED50 versus pituicyte GH ED50
  “Classical”:“BSCI” potency ratio, Rat: 0.0009
[1]; Table 3
  Rat chemokine-induced PBMC migration assay Max effect: 100%
THP-1 cells; THP-1 migration ED50 versus Panc-2H4 insulin ED50
  “Classical”:“BSCI” potency ratio, Human: <0.00009
THP-1 cells; Table 3
  Human chemokine-induced THP-1 migration assay Max effect: 100%
THP-1 cells; Table 5
  Chemokine-induced THP-1 cell migration assay Max Effect: 100%
THP-1 cells; Table 5, migration ED50 versus insulin ED50
  RATIO: <0.00009
